Data published in patent EP2769738B1, “Conjugated TLR7 and/or TLR8 and TLR2 polycationic agonists” (Invivogen, priority 2013, dated 2014).

How the values were obtained:
[1] = molecular target: T1, human TLR7 (Homo sapiens, UniProt Q9NYK1); experiment: HEK-Blue hTLR7 NF-κB/AP-1-inducible SEAP reporter cell assay; type: cell-based; settings: Figure 1; 10 µg/mL to 10 pg/ml, 24 hours, SEAP read as OD at 655 nm
T1 construct: host or cells: HEK293 (ATCC, CRL-1573), HEK-Blue hTLR7
T1 sequence (Q9NYK1 27-1049): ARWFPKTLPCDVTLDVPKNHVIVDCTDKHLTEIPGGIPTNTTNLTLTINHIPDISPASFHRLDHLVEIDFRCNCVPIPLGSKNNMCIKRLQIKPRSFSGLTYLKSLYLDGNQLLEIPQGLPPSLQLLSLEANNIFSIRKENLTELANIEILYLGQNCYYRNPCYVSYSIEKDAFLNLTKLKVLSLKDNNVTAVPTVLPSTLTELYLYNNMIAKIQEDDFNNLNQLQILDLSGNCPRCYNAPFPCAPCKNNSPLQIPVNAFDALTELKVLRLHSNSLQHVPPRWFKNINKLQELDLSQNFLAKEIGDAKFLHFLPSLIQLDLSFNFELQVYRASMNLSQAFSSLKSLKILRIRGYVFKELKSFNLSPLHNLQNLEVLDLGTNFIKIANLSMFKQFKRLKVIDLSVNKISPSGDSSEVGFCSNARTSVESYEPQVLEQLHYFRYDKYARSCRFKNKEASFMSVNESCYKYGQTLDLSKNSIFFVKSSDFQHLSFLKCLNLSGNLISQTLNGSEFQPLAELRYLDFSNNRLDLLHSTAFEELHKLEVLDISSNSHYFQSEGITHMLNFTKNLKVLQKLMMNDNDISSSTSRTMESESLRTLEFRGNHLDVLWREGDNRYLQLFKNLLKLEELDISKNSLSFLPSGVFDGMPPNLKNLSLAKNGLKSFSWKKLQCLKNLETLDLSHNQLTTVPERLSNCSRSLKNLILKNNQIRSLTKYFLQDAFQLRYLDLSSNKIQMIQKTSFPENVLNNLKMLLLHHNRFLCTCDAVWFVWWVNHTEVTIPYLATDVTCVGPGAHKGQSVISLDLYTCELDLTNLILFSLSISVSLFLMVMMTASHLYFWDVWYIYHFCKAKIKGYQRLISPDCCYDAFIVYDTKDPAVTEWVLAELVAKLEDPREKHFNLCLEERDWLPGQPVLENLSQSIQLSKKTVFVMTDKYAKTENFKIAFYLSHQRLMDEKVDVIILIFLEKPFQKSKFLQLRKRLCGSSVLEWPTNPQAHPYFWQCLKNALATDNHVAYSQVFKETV
Excerpt: (§1) Assays for detecting TLR7, TLR8 or TLR2 activity are known in the art and include for example cell-based assays using respectively TLR7, TLR8 or TLR2 reporter cell lines (InvivoGen). The reporter cell lines are engineered HEK293 cells, a human embryonic kidney cell line (ATCC, CRL-1573) that stably express either murine TLR7 (HEK-Blue™ mTLR7) or human TLR7 (HEK-Blue™ hTLR7), human TLR8 (HEK-Blue™ hTLR8) or human TLR2 (HEK- Blue™ hTLR2) with an NF-κB-inducible secreted embryonic alkaline phosphatase (SEAP) as the reporter gene.
(§2) Cell-based assays were carried out using TLR7 and TLR2 reporter cell lines (InvivoGen). The reporter cell lines are engineered HEK293 cells, a human embryonic kidney cell line (ATCC, CRL-1573) that stably express either murine TLR7 (HEK-Blue™ mTLR7) or human TLR7 (HEK-Blue™ hTLR7) or human TLR2 (HEK- Blue™ hTLR2) with an NF-κB-inducible secreted embryonic alkaline phosphatase (SEAP) as the reporter gene. The SEAP reporter gene is under the control of the NF-κB and AP-1-inducible promoter, which, upon treatment with a corresponding TLR ligand and activation of NF-κB and AP-1, induces the production of SEAP. Detection of SEAP is measured following culturing cells in HEK-Blue™ Detection media (InvivoGen). HEK-Blue™ Detection contains a SEAP substrate that when hydrolysed by SEAP produces a colorimetric change allowing for detection of SEAP as the protein is secreted. […] These assays were carried out using RAW-Blue™ Cells (InvivoGen), derived from RAW 264.7 mouse leukemic monocyte macrophage cell line (ATCC, CRL 2278) stably overexpressing a NF-κB /AP-1 inducible SEAP reporter constructs.
(§3) To perform the assay, cells were seeded on 96 well microliter plates at 50,000 or 100,000 cells per well for HEK-Blue™ Cells and RAW-Blue™ Cells respectively, and cultured at 37 °C in the presence of the conjugated compounds The TLR7-TLR2 polyamine molecules were prepared as follows: First, stock solutions of the conjugated compounds of the invention were prepared in ethanol or water to a concentration of 10 mg/ml.
(§4) The working dilutions of the conjugated TLR7-TLR2 polyamine agonists made up in water or PBS were directly added to the reporter cell lines at a final concentration ranging from 10 µg/mL to 10 pg/ml and incubated at 37 °C for 24 hours. After 24 hours of incubation, the effect on reporter gene activity was determined by reading the OD at 655 nm using iMark™ Microplate Reader (BIO-RAD).

[2] = test system: B16-F1 cells; experiment: Cell transfection with SEAP plasmid, B16-F1; type: cell-based, mouse; settings: Figure 5B; in complex with pVitro14 LGFP SEAP plasmid, 48 hours, SEAP reporter gene expression
Method: The TLR7-TLR2 molecules were tested for their ability as polyamine molecules to transport plasmid DNA (pDNA) into cells. The pVitro14 LGFP SEAP plasmid (InvivoGen) was complexed to TLR7-TLR2 polyamine molecules and to the control cationic lipid transfection agent, LyoVec™ (InvivoGen). The human HEK293 (ATCC, CRL-1573) and mouse B16-F1 melanoma (ATCC, CRL-6323) cell lines were seeded at a density of 50 000 cells/well and 20 000 cells/well respectively, in the absence or presence of different volumes of the plasmid encoding for the SEAP protein in complex with TLR7-TLR2 polyamine molecules for 48 hours at 37°C and 10% CO2. Transfection efficiency was assessed by measuring SEAP reporter gene expression: 20 µl of supernatant was sampled and mixed with 180 µl of QUANTI-Blue™ Detection (InvivoGen). In the presence of alkaline phosphatase SEAP, the color of QUANTI-Blue™ changes from pink to purple/blue. The intensity of the blue hue reflects the activity of SEAP. The levels of SEAP secretion were determined quantitatively by reading the OD at 620-655 nm using a spectrophotometer, iMark™ Microplate Reader (BIO-RAD).

[3] = molecular target: T2, human TLR2 (Homo sapiens, UniProt O60603); experiment: HEK-Blue hTLR2 NF-κB/AP-1-inducible SEAP reporter cell assay; type: cell-based; settings: Figure 3; 10 µg/mL to 10 pg/ml, 24 hours, SEAP read as OD at 655 nm
T2 construct: host or cells: HEK293 (ATCC, CRL-1573), HEK-Blue hTLR2
T2 sequence (O60603 21-784): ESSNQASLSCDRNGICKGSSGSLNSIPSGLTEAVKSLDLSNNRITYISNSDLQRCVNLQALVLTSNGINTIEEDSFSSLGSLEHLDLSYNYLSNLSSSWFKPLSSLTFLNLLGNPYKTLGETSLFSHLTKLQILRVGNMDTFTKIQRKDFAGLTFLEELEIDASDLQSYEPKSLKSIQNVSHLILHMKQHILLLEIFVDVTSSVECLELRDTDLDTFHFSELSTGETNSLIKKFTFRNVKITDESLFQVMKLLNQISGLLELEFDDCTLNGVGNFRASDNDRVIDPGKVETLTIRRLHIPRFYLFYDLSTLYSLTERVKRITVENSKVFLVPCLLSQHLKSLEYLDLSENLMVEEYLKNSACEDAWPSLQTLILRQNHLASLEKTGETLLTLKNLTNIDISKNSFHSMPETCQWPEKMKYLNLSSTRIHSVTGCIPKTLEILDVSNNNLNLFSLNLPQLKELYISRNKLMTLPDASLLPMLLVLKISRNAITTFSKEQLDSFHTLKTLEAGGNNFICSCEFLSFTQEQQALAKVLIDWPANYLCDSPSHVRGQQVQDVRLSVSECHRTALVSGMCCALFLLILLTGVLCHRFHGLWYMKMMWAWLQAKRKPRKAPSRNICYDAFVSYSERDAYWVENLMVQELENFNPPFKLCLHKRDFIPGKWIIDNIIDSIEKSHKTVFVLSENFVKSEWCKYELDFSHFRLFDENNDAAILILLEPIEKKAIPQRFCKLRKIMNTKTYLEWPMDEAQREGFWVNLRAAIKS
Excerpt: as §1, §2, §3, §4

[4] = test system: endogenous TLR2 and TLR7 in RAW-Blue™ Cells; experiment: RAW-Blue Cells NF-κB/AP-1 SEAP reporter assay (endogenous receptors); type: cell-based, mouse; settings: Figure 4; 10 µg/mL to 10 pg/ml, 24 hours, SEAP read as OD at 655 nm
Method: as §2, §3, §4

| SMILES | ability to activate hTLR7 [1] | ability to transfect B16-F1 cells [2] | ability to activate hTLR2 [3] | ability to activate endogenous TLR2 and TLR7 in RAW-Blue™ Cells [4] |
| --- | --- | --- | --- | --- |
| CCCCCCCCCCCCCCCC(=O)OCC(CSC[C@H](N)C(=O)NCCCNCCCCNCCCNC(=O)CNC(=O)c1ccc(Cn2c(O)nc3c(N)nc(NCCCC)nc32)cc1)OC(=O)CCCCCCCCCCCCCCC (stereo partly drawn) [CL553, (20R)-20-amino-1-(4-((6-amino-2-(butylamino)-8-hydroxy-9H-purin-9-yl)methyl)phenyl)-1,4,19-trioxo-22-thia-2,5,9,14,18-pentaazapentacosane-24,25-diyl dipalmitate] | activate hTLR7 | transfect B16-F1 cells | activate hTLR2 | activate endogenous TLR2 and TLR7 |
| CCCCCCCCCCCCCCCC(=O)OCC(CSC[C@H](N)C(=O)N[C@@H](CCC(=O)NCCCNCCCCNCCCN)C(=O)Nc1ccc(Cn2c(O)nc3c(N)nc(NCCCC)nc32)cc1)OC(=O)CCCCCCCCCCCCCCC (stereo partly drawn) [CL527, (6R,9S)-6,25-diamino-9-(4-((6-amino-2-(butylamino)-8-hydroxy-9H-purin-9-yl)methyl)phenylcarbamoyl)-7,12-dioxo-4-thia-8,13,17,22-tetraazapentacosane-1,2-diyl dipalmitate] | activate hTLR7 | transfect B16-F1 cells | activate hTLR2 | activate endogenous TLR2 and TLR7 |
| CCCCCCCCCCCCCCCC(=O)OCC(CSC[C@H](N)C(=O)N[C@@H](CCCCNC(=O)CNC(=O)c1ccc(Cn2c(O)nc3c(N)nc(NCCCC)nc32)cc1)C(=O)NCCCNCCCCNCCCN)OC(=O)CCCCCCCCCCCCCCC (stereo partly drawn) [CL475, (6R,9S)-6,23-diamino-9-(4-(2-(4-((6-amino-2-(butylamino)-8-hydroxy-9H-purin-9-yl)methyl)benzamido)acetamido)butyl)-7,10-dioxo-4-thia-8,11,15,20-tetraazatrico sane-1,2-diyl dipalmitate] | activate hTLR7 |  | activate hTLR2 | activate endogenous TLR2 and TLR7 |
| CCCCCCCCCCCCCCCC(=O)OCC(CSC[C@H](N)C(=O)NCCCC[C@H](NC(=O)c1ccc(Cn2c(O)nc3c(N)nc(NCCCC)nc32)cc1)C(=O)NCCCNCCCCNCCCN)OC(=O)CCCCCCCCCCCCCCC (stereo partly drawn) [CL486, (6R,13S)-6,27-diamino-13-(4-((6-amino-2-(butylamino)-8-hydroxy-9H-purin-9-yl)methyl)benzamido)-7,14-dioxo-4-thia-8,15,19,24-tetraazaheptacosane-1,2-diyl dipalmitate] | activate hTLR7 |  | activate hTLR2 | activate endogenous TLR2 and TLR7 |
| CCCCCCCCCCCCCCCC(=O)OCC(CSC[C@H](N)C(=O)N[C@@H](COC(=O)c1ccc(Cn2c(O)nc3c(N)nc(NCCCC)nc32)cc1)C(=O)NCCCNCCCCNCCCN)OC(=O)CCCCCCCCCCCCCCC (stereo partly drawn) [CL514, (6R,9S)-6,23-diamino-9-((4-((6-amino-2-(butylamino)-8-hydroxy-9H-purin-9-yl)methyl)benzoyloxy)methyl)-7,10-dioxo-4-thia-8,11,15,20-tetraazatricosane-1,2-diyl dipalmitate] | activate hTLR7 | transfect B16-F1 cells | activate hTLR2 | activate endogenous TLR2 and TLR7 |
| CCCCCCCCCCCCCCCC(=O)OCC(CSC[C@H](N)C(=O)NCCCC[C@H](NC(=O)CNC(=O)c1ccc(Cn2c(O)nc3c(N)nc(NCCCC)nc32)cc1)C(=O)NCCCNCCCCNCCCN)OC(=O)CCCCCCCCCCCCCCC (stereo partly drawn) [CL487, (6R,13S)-6,27-diamino-13-(2-(4-((6-amino-2-(butylamino)-8-hydroxy-9H-purin-9-yl)methyl)benzamido)acetamido)-7,14-dioxo-4-thia-8,15,19,24-tetraazaheptacosane-1,2-diyl dipalmitate] | activate hTLR7 |  | activate hTLR2 | activate endogenous TLR2 and TLR7 |
